Reference: patent US9339471B2, “Long acting dual release product containing carbinoxamine and pseudoephedrine” (E5 PHARMA, LLC, priority 2007, dated 2016)
Like-named read-outs stand apart in the source and are kept apart here. Marks after values point to notes of the source that are not given here.

What was measured:
[1] = Single dose fasted bioavailability study, 4 mg immediate release carbinoxamine maleate tablet; format: in vivo; parameters: Plasma concentration of carbinoxamine: unit not given here; conditions: for Cmax / Tmax / half-life / AUC(0-t) / MRT: 4 mg
Description: A single dose fasted bioavailability study was undertaken using four milligram immediate release carbinoxamine maleate tablets formulated in an immediate release format. Samples were taken over a forty eight hours period after administration of the drug, and the first meal was allowed to be ingested four hours after administration. Table 3 compares the observed pharmacokinetics from this test to those observed by Stockis et al. in Arzneim.-Forsch 1992, 42(12):1478-81, and Stockis et al. in Arzneim.-Forsch 1995, 45(9) 1009-1012.
FIG. 1 is a mean plasma concentration-time profile of the carbinoxamine after administering the immediate release tablet in the fasted state from time 0 to time 48 hours. Graph (A) is the linear ordinate; graph (B) is the log-linear ordinate.

[2] = cited from earlier work; for AUC(0-t): AUC0-6
[3] = human, plasma, po, Our study, Tablet 4 mg
[4] = human, plasma, po, fasted, Mean
[5] = human, plasma, po, fasted, subject 101
[6] = human, plasma, po, fasted, subject 102
[7] = human, plasma, po, fasted, subject 103
[8] = 4 mg retard capsule, single administration
[9] = 4 mg retard capsule, successive administrations
[10] = Literature 2, Aqueous solution 4 mg
[11] = Literature 2, Retard capsule 4 mg
[12] = Literature 2, Retard capsule SS 4 mg, steady-state (q12 h)

Question: With `CN(C)CCOC(c1ccc(Cl)cc1)c1ccccn1` (centres unmarked) [carbinoxamine, 2-[(4-chlorophenyl)-2-pyridinylmethoxy]-N,N-dimethylethanamine (Z)-2-butenedioate (1:1)] as the compound, how does the “Plasma concentration of carbinoxamine” value ([1]; fasted, 0 h, subject 101T) read?
Answer: The value was “blq”.

Question: And the “Plasma concentration of carbinoxamine” value ([1]; fasted, 0 h, subject 102T)?
Answer: Its value is “blq”.

Question: What about the “Plasma concentration of carbinoxamine” value ([1]; fasted, 0 h, subject 103T) of the same compound?
Answer: Its value is “blq”.

Question: What about the “Plasma concentration of carbinoxamine” value ([1]; fasted, 0.5 h, T-Mean) of the same compound?
Answer: Its value is 315.41.

Question: What about the “Plasma concentration of carbinoxamine” value ([1]; fasted, 0.5 h, subject 101T) of the same compound?
Answer: The value was 434.78.

Question: What about the “Plasma concentration of carbinoxamine” value ([1]; fasted, 0.5 h, subject 102T) of the same compound?
Answer: Its value is 459.42.

Question: What about the “Plasma concentration of carbinoxamine” value ([1]; fasted, 0.5 h, subject 103T) of the same compound?
Answer: The value was 52.04.

Question: What about the “Plasma concentration of carbinoxamine” value ([1]; fasted, 1 h, T-Mean) of the same compound?
Answer: Its value is 4153.31.

Question: And the “Plasma concentration of carbinoxamine” value ([1]; fasted, 1 h, subject 101T)?
Answer: Its value is 5908.19.

Question: What about the “Plasma concentration of carbinoxamine” value ([1]; fasted, 1 h, subject 102T) of the same compound?
Answer: The value was 4949.36.

Question: And the “Plasma concentration of carbinoxamine” value ([1]; fasted, 1 h, subject 103T)?
Answer: The value was 1602.38.

Question: And the “Plasma concentration of carbinoxamine” value ([1]; fasted, 2 h, T-Mean)?
Answer: Its value is 6406.31.

Question: What about the “Plasma concentration of carbinoxamine” value ([1]; fasted, 2 h, subject 101T) of the same compound?
Answer: The value was 6488.14.

Question: What about the “Plasma concentration of carbinoxamine” value ([1]; fasted, 2 h, subject 102T) of the same compound?
Answer: The value was 5684.72.

Question: What about the “Plasma concentration of carbinoxamine” value ([1]; fasted, 2 h, subject 103T) of the same compound?
Answer: Its value is 7046.07.

Question: What about the “Plasma concentration of carbinoxamine” value ([1]; fasted, 3 h, T-Mean) of the same compound?
Answer: The value was 7062.72.

Question: And the “Plasma concentration of carbinoxamine” value ([1]; fasted, 3 h, subject 101T)?
Answer: The value was 8022.80.

Question: What about the “Plasma concentration of carbinoxamine” value ([1]; fasted, 3 h, subject 102T) of the same compound?
Answer: Its value is 6592.16.

Question: What about the “Plasma concentration of carbinoxamine” value ([1]; fasted, 3 h, subject 103T) of the same compound?
Answer: The value was 6573.21.

Question: What about the “Plasma concentration of carbinoxamine” value ([1]; fasted, 4 h, T-Mean) of the same compound?
Answer: The value was 6647.30.

Question: And the “Plasma concentration of carbinoxamine” value ([1]; fasted, 4 h, subject 101T)?
Answer: Its value is 7860.85.

Question: And the “Plasma concentration of carbinoxamine” value ([1]; fasted, 4 h, subject 102T)?
Answer: The value was 6236.91.

Question: What about the “Plasma concentration of carbinoxamine” value ([1]; fasted, 4 h, subject 103T) of the same compound?
Answer: The value was 5854.14.

Question: What about the “Plasma concentration of carbinoxamine” value ([1]; fasted, 5 h, T-Mean) of the same compound?
Answer: The value was 6515.83.

Question: What about the “Plasma concentration of carbinoxamine” value ([1]; fasted, 5 h, subject 101T) of the same compound?
Answer: Its value is 7726.57.

Question: And the “Plasma concentration of carbinoxamine” value ([1]; fasted, 5 h, subject 102T)?
Answer: The value was 6649.03.

Question: And the “Plasma concentration of carbinoxamine” value ([1]; fasted, 5 h, subject 103T)?
Answer: Its value is 5171.89.

Question: What about the “Plasma concentration of carbinoxamine” value ([1]; fasted, 6 h, T-Mean) of the same compound?
Answer: The value was 5903.78.

Question: What about the “Plasma concentration of carbinoxamine” value ([1]; fasted, 6 h, subject 101T) of the same compound?
Answer: The value was 7251.86.

Question: And the “Plasma concentration of carbinoxamine” value ([1]; fasted, 6 h, subject 102T)?
Answer: The value was 6097.18.

Question: What about the “Plasma concentration of carbinoxamine” value ([1]; fasted, 6 h, subject 103T) of the same compound?
Answer: The value was 4362.30.

Question: And the “Plasma concentration of carbinoxamine” value ([1]; fasted, 8 h, T-Mean)?
Answer: The value was 5510.70.

Question: And the “Plasma concentration of carbinoxamine” value ([1]; fasted, 8 h, subject 101T)?
Answer: Its value is 6849.38.

Question: What about the “Plasma concentration of carbinoxamine” value ([1]; fasted, 8 h, subject 102T) of the same compound?
Answer: Its value is 5707.15.

Question: What about the “Plasma concentration of carbinoxamine” value ([1]; fasted, 8 h, subject 103T) of the same compound?
Answer: Its value is 3975.57.

Question: What about the “Plasma concentration of carbinoxamine” value ([1]; fasted, 12 h, T-Mean) of the same compound?
Answer: Its value is 4292.77.

Question: And the “Plasma concentration of carbinoxamine” value ([1]; fasted, 12 h, subject 101T)?
Answer: Its value is 5821.63.

Question: And the “Plasma concentration of carbinoxamine” value ([1]; fasted, 12 h, subject 102T)?
Answer: The value was 4387.40.

Question: And the “Plasma concentration of carbinoxamine” value ([1]; fasted, 12 h, subject 103T)?
Answer: Its value is 2669.29.

Question: And the “Plasma concentration of carbinoxamine” value ([1]; fasted, 24 h, T-Mean)?
Answer: Its value is 2144.60.

Question: What about the “Plasma concentration of carbinoxamine” value ([1]; fasted, 24 h, subject 101T) of the same compound?
Answer: Its value is 2632.77.

Question: What about the “Plasma concentration of carbinoxamine” value ([1]; fasted, 24 h, subject 102T) of the same compound?
Answer: Its value is 2395.51.

Question: What about the “Plasma concentration of carbinoxamine” value ([1]; fasted, 24 h, subject 103T) of the same compound?
Answer: The value was 1405.53.

Question: And the “Plasma concentration of carbinoxamine” value ([1]; fasted, 36 h, T-Mean)?
Answer: Its value is 1371.30.

Question: What about the “Plasma concentration of carbinoxamine” value ([1]; fasted, 36 h, subject 101T) of the same compound?
Answer: Its value is 1541.30.

Question: What about the “Plasma concentration of carbinoxamine” value ([1]; fasted, 36 h, subject 102T) of the same compound?
Answer: Its value is 1516.80.

Question: And the “Plasma concentration of carbinoxamine” value ([1]; fasted, 36 h, subject 103T)?
Answer: The value was 1055.79.

Question: And the “Plasma concentration of carbinoxamine” value ([1]; fasted, 48 h, T-Mean)?
Answer: Its value is 876.29.

Question: What about the “Plasma concentration of carbinoxamine” value ([1]; fasted, 48 h, subject 101T) of the same compound?
Answer: The value was 1102.33.

Question: What about the “Plasma concentration of carbinoxamine” value ([1]; fasted, 48 h, subject 102T) of the same compound?
Answer: The value was 1003.18.

Question: What about the “Plasma concentration of carbinoxamine” value ([1]; fasted, 48 h, subject 103T) of the same compound?
Answer: Its value is 528.37.

Question: And the Cmax [1, 3]?
Answer: The Cmax was 7.2 ng/mL.

Question: What about the Tmax [1, 3] of the same compound?
Answer: Its Tmax is 3.3 h.

Question: And the half-life [1, 3]?
Answer: The half-life was 1100 min.

Question: What about the AUC(0-t) [1, 4] of the same compound?
Answer: The AUC(0-t) was 161 ng·h/mL.

Question: And the Cmax [1, 4]?
Answer: Its Cmax is 7.24 ng/mL.

Question: What about the MRT [1, 4] of the same compound?
Answer: Its MRT is 24.1 h.

Question: What about the Tmax [1, 4] of the same compound?
Answer: The Tmax was 3.33 h.

Question: What about the half-life [1, 4] of the same compound?
Answer: The half-life was 1100 min.

Question: And the AUC(0-t) ([1]; human, plasma, po, fasted, Mean, first AUC column)?
Answer: The AUC(0-t) was 137 ng·h/mL.

Question: And the Cmax [1, 5]?
Answer: The Cmax was 8.02 ng/mL.

Question: What about the MRT [1, 5] of the same compound?
Answer: The MRT was 24.7 h.

Question: And the Tmax [1, 5]?
Answer: The Tmax was 3 h.

Question: What about the half-life [1, 5] of the same compound?
Answer: The half-life was 1150 min.

Question: What about the AUC(0-t) ([1]; human, plasma, po, fasted, subject 101, first AUC column) of the same compound?
Answer: The AUC(0-t) was 169 ng·h/mL.

Question: What about the AUC(0-t) ([1]; human, plasma, po, fasted, subject 101, second AUC column) of the same compound?
Answer: The AUC(0-t) was 200 ng·h/mL.

Question: What about the Cmax [1, 6] of the same compound?
Answer: Its Cmax is 6.65 ng/mL.

Question: And the MRT [1, 6]?
Answer: The MRT was 25.9 h.

Question: What about the Tmax [1, 6] of the same compound?
Answer: The Tmax was 5 h.

Question: What about the half-life [1, 6] of the same compound?
Answer: Its half-life is 1150 min.

Question: What about the AUC(0-t) ([1]; human, plasma, po, fasted, subject 102, first AUC column) of the same compound?
Answer: Its AUC(0-t) is 143 ng·h/mL.

Question: And the AUC(0-t) ([1]; human, plasma, po, fasted, subject 102, second AUC column)?
Answer: Its AUC(0-t) is 171 ng·h/mL.

Question: And the Cmax [1, 7]?
Answer: Its Cmax is 7.05 ng/mL.

Question: And the MRT [1, 7]?
Answer: Its MRT is 21.7 h.

Question: And the Tmax [1, 7]?
Answer: The Tmax was 2 h.

Question: What about the half-life [1, 7] of the same compound?
Answer: The half-life was 1010 min.

Question: What about the AUC(0-t) ([1]; human, plasma, po, fasted, subject 103, first AUC column) of the same compound?
Answer: Its AUC(0-t) is 98.4 ng·h/mL.

Question: What about the AUC(0-t) ([1]; human, plasma, po, fasted, subject 103, second AUC column) of the same compound?
Answer: Its AUC(0-t) is 111 ng·h/mL.

Question: And the AUC ([1]; human, plasma, po, Our study, Tablet 4 mg, read-out: AUC0-* ·)?
Answer: Its AUC is 161 ng·h/mL.

Question: What about the AUC(0-t) ([1]; plasma, po, Our study, Tablet 4 mg, AUC0-48) of the same compound?
Answer: Its AUC(0-t) is 137 ng·h/mL.

Question: And the Cmax [2, 8]?
Answer: The Cmax was 4.5 ng/mL.

Question: What about the Tmax [2, 8] of the same compound?
Answer: The Tmax was 6.2 h.

Question: And the half life [2, 8]?
Answer: The half life was 30 h.

Question: And the Cmax [2, 9]?
Answer: The Cmax was 13.5 ng/mL.

Question: What about the Tmax [2, 9] of the same compound?
Answer: Its Tmax is 4.8 h.

Question: What about the half life [2, 9] of the same compound?
Answer: Its half life is 22 h.

Question: What about the AUC(0-t) [2, 10] of the same compound?
Answer: Its AUC(0-t) is 64^c ng/ml * h.

Question: And the Cmax [2, 10]?
Answer: Its Cmax is 6.5 ng/mL.

Question: And the T1/2 [2, 10]?
Answer: The T1/2 was 15 h.

Question: What about the Tmax [2, 10] of the same compound?
Answer: Its Tmax is 2.6 h.

Question: And the AUC(0-t) [2, 11]?
Answer: Its AUC(0-t) is 57^c ng/ml * h.

Question: What about the Cmax [2, 11] of the same compound?
Answer: The Cmax was 4.5 ng/mL.

Question: And the T1/2 [2, 11]?
Answer: Its T1/2 is 30 h.

Question: And the Tmax [2, 11]?
Answer: Its Tmax is 6.2 h.

Question: And the “AUC0-* ·” value [2, 12]?
Answer: Its value is 125 ng·h/mL.

Question: What about the Cmax [2, 12] of the same compound?
Answer: The Cmax was 13.5 ng/mL.

Question: And the T1/2 [2, 12]?
Answer: The T1/2 was 22 h.

Question: What about the Tmax [2, 12] of the same compound?
Answer: The Tmax was 4.8 h.
